As a reminder, the viability is the share of living cells, or the viability signal relative to a control. The low end stands for more harm to the cells, the high end for less harm to the cells.

Consider 2 compounds from EP4566610A1, “SENOLYTIC COMPOUNDS” (Universidade de Santiago de Compostela, priority 2023, dated 2025).

Series [1] is described as follows: Crystal violet cell viability / IC50 assay in proliferative A549 cells. It counts as cell-based, human. The following applies: human, A549 tumor cells, non-treated (proliferating); untreated (proliferative) cells, at the tested concentration. Here is the method: (§1) Cell viability was tested by crystal violet staining as reported previously (Feoktistova et al. 2016). Both proliferative and senescent cells from different cell lines were plated at a concentration of 1,2 × 10^4 cells per well in a 96-well plate. After a 24 h incubation period, they were treated with Compound 96558 at decreasing concentrations (with DMSO as the control) and at various time points. Subsequently, cells were washed with phosphate-buffered saline (PBS, Merck) and fixed with paraformaldehyde (Electron Microscopy Science) prepared at 2% in PBS for 15 minutes, followed by a 5 min staining process using a 0.1% crystal violet solution in Milli-Q water. After staining, the excess dye was removed, washed 3 times with water, and air dried. Captured crystal violet was solubilized in 10% acetic acid and incubated on an orbital shaker at room temperature for 10 min. The absorbance was measured using a BioTek microplate reader equipped with Gen5 software.
(§2) Cell viability was evaluated following the previously mentioned protocol of crystal violet staining. The IC50 calculations were performed using GraphPad Prism® software.
(§3) First, we sought to validate the senolytic potential of the Candidate Compound within the same cell type and under the same conditions of senescence induction as employed during the high-throughput screening. To achieve this, we used A549 cells in which senescence was induced using bleomycin (20 µM; 5 days). Subsequently, following the confirmation of the senescent status of these cells in comparison to the proliferative control (Figure 8A), a cell viability assay was performed, employing crystal violet staining, as detailed in the Materials and Methods section.
(§4) After evaluating the senolytic activity of the Candidate Compound at the same concentration used in the screening (Figure 9), we conducted further tests using a range of concentrations, from 100 µM to 0.3125 µM, in A549 tumor cells. […] In addition, we also assessed the drug's ability to affect cell viability at different time points (24, 48, and 72 hours) by renewing the Compound every 24 hours.

The subject of series [2] is A549 Bleomycin-Induced Senescent Cells. The experiment in a line: Crystal violet cell viability / IC50 assay in bleomycin-induced senescent A549 cells. It counts as cell-based, human. The following applies: for IC50: Homo sapiens, A549. Here is the method:
Navitoclax (ABT-263, Abbvie) was used as a positive control for senolysis. For chemotherapy-induced senescence we used Bleomycin (Mylan Pharmaceuticals) at 20 µM for 5 days. Alternatively, we also used 5 µM Palbociclib (MedChemExpress) for 7 days. Ionizing radiation at a dose of 10 Gy was applied to induce senescence. Doxycycline (Sigma), a stable tetracycline analogue, was used as an inducer for inducible expression systems at 1 µg/mL. Cell viability was tested by crystal violet staining as reported previously (Feoktistova et al. 2016). Both proliferative and senescent cells from different cell lines were plated at a concentration of 1,2 × 10^4 cells per well in a 96-well plate. After a 24 h incubation period, they were treated with Compound 96558 at decreasing concentrations (with DMSO as the control) and at various time points. […] After staining, the excess dye was removed, washed 3 times with water, and air dried. […] The absorbance was measured using a BioTek microplate reader equipped with Gen5 software. […] Cell viability was evaluated following the previously mentioned protocol of crystal violet staining. The IC50 calculations were performed using GraphPad Prism® software. First, we sought to validate the senolytic potential of the Candidate Compound within the same cell type and under the same conditions of senescence induction as employed during the high-throughput screening. To achieve this, we used A549 cells in which senescence was induced using bleomycin (20 µM; 5 days). Subsequently, following the confirmation of the senescent status of these cells in comparison to the proliferative control (Figure 8A), a cell viability assay was performed, employing crystal violet staining, as detailed in the Materials and Methods section. After evaluating the senolytic activity of the Candidate Compound at the same concentration used in the screening (Figure 9), we conducted further tests using a range of concentrations, from 100 µM to 0.3125 µM, in A549 tumor cells. These tests were performed both in their non-treated (proliferating) state and after the induction of senescence with Bleomycin. In addition, we also assessed the drug's ability to affect cell viability at different time points (24, 48, and 72 hours) by renewing the Compound every 24 hours.

Series [3] deals with U87MG cells induced into senescence with palbociclib. The experiment in a line: Crystal violet cell viability / IC50 assay in palbociclib-induced senescent U87MG cells. It counts as cell-based, human. How it is done:
(§5) Navitoclax (ABT-263, Abbvie) was used as a positive control for senolysis. For chemotherapy-induced senescence we used Bleomycin (Mylan Pharmaceuticals) at 20 µM for 5 days. Alternatively, we also used 5 µM Palbociclib (MedChemExpress) for 7 days. Ionizing radiation at a dose of 10 Gy was applied to induce senescence. Doxycycline (Sigma), a stable tetracycline analogue, was used as an inducer for inducible expression systems at 1 µg/mL.
as §1, with “Captured crystal violet was solubilized in 10% acetic acid and incubated on an orbital shaker at room temperature for 10 min.” left out
Cell viability was evaluated following the previously mentioned protocol of crystal violet staining. […]

Series [4] concerns U87MG glioma cell line, proliferating cells. The experiment in a line: Crystal violet cell viability / IC50 assay in proliferating U87MG cells. It is filed as cell-based. The following applies: Homo sapiens, U-87 MG, read-out: quantity required to eliminate at least 50% of proliferative counterparts. How it is done:
as §1, §2
To thoroughly explore the senolytic potential of Compound 96558, we employed a different human tumor cell line, specifically the U87MG glioma cell line. […]

In series [5] the test system is A549 tumor cells, non-treated (proliferating) state. As to the kind of experiment: Crystal violet cell viability / IC50 assay in proliferative A549 cells. It is filed as cell-based, human. Here is the method: as §1, §2, §3, §4
In series [6] the test system is Radiation-Induced senescent A549cells. As to the kind of experiment: Crystal violet cell viability / IC50 assay in ionizing radiation-induced senescent A549 cells. It counts as cell-based, human. The following applies: for concentration showing enhanced efficacy (greater cytotoxic effect on senescent cells than proliferating): ionizing radiation 10 Gy. Here is the method:
as §5, §1, §2
Subsequently, we aimed to assess the senolytic capability of our Compound using a senescence induction method different from the previous chemotherapy-induced approach. In this regard, we exposed A549 cells to ionizing radiation, confirmed the senescent status (Figure 8B) and conducted a similar assay as described previously.

For another series, the system named is senescent A549 cells. The experiment in a line: Apoptosis assay (Annexin V-FITC/7-AAD flow cytometry) in bleomycin-induced senescent A549 cells. It counts as cell-based, human. Here is the method: (§6) A549 cells were resuspended into a single-cell suspension and plated at a density of 3 × 10^5 cells per well in six-well plates. After culturing for 24 h, the cells were treated with DMSO (control), the Compound, or a combination of pan-caspase inhibitor Z-VAD-FMK (Santa Cruz Biotech.) and the Compound. Following a 24 h incubation with the drugs, the cells were harvested by centrifugation at 3,000 rpm for 5 minutes and washed twice with PBS. Subsequently, the cells were resuspended in 500 µl of binding buffer. Then, 5 µl of Annexin V-FITC and 5 µl of 7-AAD (Elabscience) were used to detect the effect of Compound 96558 on cell apoptosis. The resulting samples were immediately analyzed by flow cytometry (FACScan, BD Biosciences), using the FITC channel (excitation: 488 nm and emission: 525 nm) and the 7-AAD channel (excitation: 488 nm and emission: 670 nm).
(§7) To investigate the potential mechanism of cell death by which the compound eliminates senescent cells, we analyzed apoptosis induction. For this, we conducted a flow cytometry assay to evaluate Annexin-V staining on bleomycin-induced senescent cells treated or not with our senolytic Candidate.
(In general: Flow cytometry measures light scatter and fluorescence of single cells or particles in a stream.)

The next series has as its system A549 proliferative cells. The experiment in a line: Apoptosis assay (Annexin V-FITC/7-AAD flow cytometry) in proliferative A549 cells. It is filed as cell-based, human. The following applies: 10 µM, 24 h. Here is the method: as §6, §7

Regarding `CC1(C)CCC(c2ccc(Cl)cc2)=C(CN2CCN(c3ccc(C(=O)NS(=O)(=O)c4ccc(N[C@H](CCN5CCOCC5)CSc5ccccc5)c(S(=O)(=O)C(F)(F)F)c4)cc3)CC2)C1` [Navitoclax, reference compound], the viability in series [1] was about 100%; in series [2] (Bleomycin-induced senescent cells, at the tested concentration), “significantly affected”.

As for `C#CC(=O)NCCNc1nc(C)nc(C)c1Br` [Compound 96558], the IC50 in series [3] (Homo sapiens, U-87 MG, senescent cells, palbociclib-induced) came out at 1790 nM; in series [4] it was 29.8 µM; in series [2] (senescent cells, 24-hour), 3730 nM; in series [2] (senescent cells, 48 hours of treatment), 1830 nM; in series [2] (senescent cells, 72 hours), 1410 nM. The compound also had a senolytic index in series [3] (U87MG, IC50 proliferating over senescent) of 16.6. For the same compound, the “IC50 values observed for proliferative cells” value in series [5] (compared with senescent cells, 24, 48 and 72 hours) is on record as “consistently higher”. Further, the viability result in series [5] (proliferative cells, low concentrations, 24, 48, and 72 hours) is “intact viability”; in series [2] (senescent cells, low concentrations, 24, 48, and 72 hours) it was “efficient elimination of the senescent cells”. In addition, the “concentration showing enhanced efficacy (greater cytotoxic effect on senescent cells than proliferating)” value is “approximately 12.5 µM” in series [6] (24-hour), 2.5 µM in series [6] (48 hours) and 2.5 µM in series [6] (72 hours). Also, in series [6] (senescent versus proliferative counterparts, all examined conditions), the IC50 curves entry is listed as “lower Compound concentrations are required for the eradication of senescent cells”. The “apoptosis induction (FITC-Annexin V-positive and 7-AAD positive)” value with senescent A549 cells (Compound treatment versus DMSO, 24 h) is “a significant proportion of cells were in late apoptosis”. In addition, the “apoptosis induction (FITC-Annexin V and 7-AAD staining)” value in the series on senescent A549 cells (combination with pan-caspase inhibitor Z-VAD-FMK) is listed as “the majority of cells appeared as viable cells”. Also, the apoptosis induction entry in the series on A549 proliferative cells is recorded as “apoptosis was not induced”. Besides, the “concentration with effective cytotoxicity in senescent cells with minimal impact on proliferative cells” value in series [2] (24 hours, bleomycin 20 µM, 5 days) is on record as “around 12.5 µM”. Also, the “concentration effective for favorable senolytic effect” value in series [2] (48 hours, Compound renewed every 24 hours) was found to be 6.25 µM. Besides, the “most efficient concentration for senolytic effect” value in series [2] (72 hours, Compound renewed every 24 hours) amounted to 3.125 µM. In addition, the “senolytic index, the ratio between the IC50 values on proliferating cells over senescent ones” value in series [2] (A549, bleomycin, 24, 48, 72 hours) is given as “increases with time”.
